In experiment [1] the target is T1, Dickkopf-related protein 1 (Homo sapiens, UniProt O94907).
T1 sequence (O94907 whole entry): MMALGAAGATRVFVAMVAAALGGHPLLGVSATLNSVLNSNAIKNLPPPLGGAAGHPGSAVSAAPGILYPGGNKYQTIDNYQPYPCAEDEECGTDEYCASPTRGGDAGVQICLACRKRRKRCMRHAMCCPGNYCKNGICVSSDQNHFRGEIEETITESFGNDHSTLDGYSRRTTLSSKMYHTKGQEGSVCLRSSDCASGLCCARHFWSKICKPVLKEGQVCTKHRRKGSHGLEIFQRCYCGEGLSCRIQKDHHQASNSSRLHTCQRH
The experiment can be described thus: Inhibition of human DKK1 in MC3T3E1/TetON-Wnt1/STF-Luc#5 cells assessed as DKK1 neutralizing activity by Wnt1-induced TCF/LEF luciferase reporter gene assay.

Experiment [2] addresses T2, Dickkopf WNT-signaling pathway inhibitor 1 (Rattus norvegicus) (UniProt A6I0Z0).
T2 sequence (whole entry): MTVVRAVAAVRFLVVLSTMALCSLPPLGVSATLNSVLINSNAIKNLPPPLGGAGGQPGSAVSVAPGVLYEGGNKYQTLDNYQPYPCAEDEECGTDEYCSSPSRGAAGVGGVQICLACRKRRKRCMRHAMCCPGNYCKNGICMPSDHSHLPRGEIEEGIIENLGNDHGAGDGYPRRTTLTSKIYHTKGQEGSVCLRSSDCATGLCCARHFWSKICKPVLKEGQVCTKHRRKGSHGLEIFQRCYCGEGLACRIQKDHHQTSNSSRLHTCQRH
The experiment can be described thus: Inhibition of biotin-labeled rat recombinant DKK1 assessed as reduction in DKK1 interaction with LRP-6/Fc incubated overnight by chemiluminescence based Alpha-screen assay.

For experiment [3], the target named is T3, Dickkopf-related protein 1 (Homo sapiens) (UniProt O94907).
T3 sequence (whole entry): T1 sequence (O94907 whole entry)
Description: Inhibition of biotin-labeled human recombinant DKK1 assessed as reduction in DKK1 interaction with LRP-6/Fc incubated overnight by chemiluminescence based Alpha-screen assay. For orientation: Alpha assays give light when donor and acceptor beads are brought close together.

The term IC50 denotes the concentration that gives 50% inhibition.

Activity calls are given as the source filed them. The rule behind the calls is not given here. Where a SMILES comes first, the peptide text is derived from it.

For `CC[C@H](C)[C@H](NC(=O)[C@H](CCC(=O)O)NC(=O)[C@H](CC(=O)O)NC(=O)[C@H](CO)NC(=O)[C@H](C)NC(=O)[C@H](CC(=O)O)NC(=O)[C@@H](NC(=O)[C@H](CS)NC(=O)[C@H](CC(=O)O)NC(=O)[C@@H]1CCCN1C(=O)[C@H](Cc1ccccc1)NC(=O)CNC(=O)[C@H](CC(=O)O)NC(=O)[C@H](CS)NC(=O)[C@H](CCCNC(=N)N)NC(=O)[C@H](Cc1c[nH]c2ccccc12)NC(=O)[C@H](CCC(=O)O)NC(=O)[C@H](CCSC)NC(=O)[C@@H]1CCCN1C(=O)[C@H](Cc1ccc(O)cc1)NC(=O)[C@H](CS)NC(=O)[C@H](Cc1cnc[nH]1)NC(=O)[C@@H]1CCCN1C(=O)[C@H](Cc1cnc[nH]1)NC(=O)[C@H](CC(N)=O)NC(=O)[C@H](CCCNC(=N)N)NC(=O)[C@H](CS)NC(=O)[C@H](CCC(N)=O)NC(=O)[C@H](Cc1ccccc1)NC(=O)[C@H](Cc1ccc(O)cc1)NC(=O)[C@H](CO)NC(=O)[C@@H](NC(=O)[C@@H]1CCCN1C(=O)[C@@H](N)CS)C(C)C)C(C)C)C(=O)NCC(=O)N[C@@H](CS)C(=O)NCC(=O)NCC(=O)NCC(=O)NCC(=O)O` (H-CPVSYFQCRNHPHCYPMEWRCDGFPDCVDASDEIGCGGGG-OH), the IC50 in experiment [1] lay in the range of 0.8 to 3 nM. Besides, the inhibition result in experiment [2] and in experiment [3] was “Active” each time.

As for `CC[C@H](C)[C@H](NC(=O)[C@H](CS)NC(=O)[C@H](CC(=O)O)NC(=O)[C@@H]1CCCN1C(=O)[C@H](Cc1ccccc1)NC(=O)CNC(=O)[C@H](CC(=O)O)NC(=O)[C@H](CS)NC(=O)[C@H](CCCNC(=N)N)NC(=O)[C@H](Cc1c[nH]c2ccccc12)NC(=O)[C@H](CCC(=O)O)NC(=O)[C@H](CCSC)NC(=O)[C@@H]1CCCN1C(=O)[C@H](Cc1ccc(O)cc1)NC(=O)[C@H](CS)NC(=O)[C@H](Cc1cnc[nH]1)NC(=O)[C@@H]1CCCN1C(=O)[C@H](Cc1cnc[nH]1)NC(=O)[C@H](CC(N)=O)NC(=O)[C@H](CCCNC(=N)N)NC(=O)[C@H](CS)NC(=O)[C@@H]1CCCN1C(=O)[C@H](Cc1ccccc1)NC(=O)[C@H](Cc1ccc(O)cc1)NC(=O)[C@@H](NC(=O)[C@H](C)NC(=O)[C@@H]1CCCN1C(=O)[C@@H](N)CS)[C@@H](C)O)C(=O)N[C@@H](CC(=O)O)C(=O)N[C@@H](CCC(=O)O)C(=O)N[C@@H](CO)C(=O)N[C@@H](CC(=O)O)C(=O)N[C@@H](CCC(=O)O)C(=O)N[C@@H](CCSC)C(=O)NCC(=O)N[C@@H](CS)C(=O)NCC(=O)NCC(=O)NCC(=O)NCC(=O)O` (H-CPATYFPCRNHPHCYPMEWRCDGFPDCIDESDEMGCGGGG-OH), in experiment [1], the IC50 lay within 0.8 to 3 nM. Also, the inhibition entry in experiment [2] and in experiment [3] was “Active” each time.

With `CSCC[C@H](NC(=O)[C@@H]1CCCN1C(=O)[C@H](Cc1ccc(O)cc1)NC(=O)[C@H](CS)NC(=O)[C@H](Cc1cnc[nH]1)NC(=O)[C@@H]1CCCN1C(=O)[C@H](Cc1cnc[nH]1)NC(=O)[C@H](CC(N)=O)NC(=O)[C@H](CCCNC(=N)N)NC(=O)[C@H](CS)NC(=O)[C@H](CCCCN)NC(=O)[C@H](Cc1ccccc1)NC(=O)[C@H](Cc1ccc(O)cc1)NC(=O)[C@H](CO)NC(=O)[C@H](C)NC(=O)[C@@H]1CCCN1C(=O)[C@@H](N)CS)C(=O)N[C@@H](CCC(=O)O)C(=O)N[C@@H](Cc1c[nH]c2ccccc12)C(=O)N[C@@H](CCCNC(=N)N)C(=O)N[C@@H](CS)C(=O)N[C@@H](CC(=O)O)C(=O)NCC(=O)N[C@@H](Cc1ccccc1)C(=O)N[C@@H](C)C(=O)N[C@@H](CC(=O)O)C(=O)N[C@@H](CS)C(=O)N[C@H](C(=O)N[C@@H](CC(=O)O)C(=O)NCC(=O)N[C@@H](CO)C(=O)N[C@@H](CC(=O)O)C(=O)N[C@@H](CCC(=O)O)C(=O)N[C@@H](CC(C)C)C(=O)N[C@@H](CO)C(=O)N[C@@H](CS)C(=O)NCC(=O)NCC(=O)NCC(=O)NCC(=O)O)C(C)C` (H-CPASYFKCRNHPHCYPMEWRCDGFADCVDGSDELSCGGGG-OH), in experiment [1], the IC50 was 0.8 to 3 nM. In addition, the inhibition entry in experiment [2] and in experiment [3] was “Active” throughout.
